Laboratory results published in paper PMC8301926 (Biomolecules, 2021).

Key:
[1] = molecular target: T1, recombinant human monoamine oxidase B (hMAO-B) (Homo sapiens, UniProt P27338); test: hMAO-B inhibition, MAO-Glo chemiluminescent assay; format: biochemical; conditions: mean ± SD of triplicate experiments
T1 sequence (P27338 1-520): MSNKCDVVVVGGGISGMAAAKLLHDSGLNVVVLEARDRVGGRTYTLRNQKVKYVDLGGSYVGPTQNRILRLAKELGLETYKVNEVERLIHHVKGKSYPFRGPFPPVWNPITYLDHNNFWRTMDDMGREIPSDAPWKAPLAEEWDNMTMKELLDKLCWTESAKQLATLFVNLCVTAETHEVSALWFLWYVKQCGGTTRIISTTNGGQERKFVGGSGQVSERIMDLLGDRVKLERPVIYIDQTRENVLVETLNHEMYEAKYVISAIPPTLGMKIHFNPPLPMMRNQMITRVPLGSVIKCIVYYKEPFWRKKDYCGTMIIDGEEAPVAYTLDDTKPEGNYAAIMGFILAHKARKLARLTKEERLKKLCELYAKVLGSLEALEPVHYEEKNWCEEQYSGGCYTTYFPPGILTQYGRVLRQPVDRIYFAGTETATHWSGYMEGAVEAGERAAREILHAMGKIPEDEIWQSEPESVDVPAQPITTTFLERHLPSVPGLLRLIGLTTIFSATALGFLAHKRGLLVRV

[2] = molecular target: T2, recombinant human monoamine oxidase A (hMAO-A) (Homo sapiens, UniProt P21397); test: hMAO-A enzyme kinetics (Lineweaver-Burk, Dixon, secondary plots); format: biochemical; conditions: for Ki: hMAO-A, from secondary plots; for Inhibition Type, hMAO-A: Lineweaver-Burk and Dixon plots
T2 sequence (P21397 1-527): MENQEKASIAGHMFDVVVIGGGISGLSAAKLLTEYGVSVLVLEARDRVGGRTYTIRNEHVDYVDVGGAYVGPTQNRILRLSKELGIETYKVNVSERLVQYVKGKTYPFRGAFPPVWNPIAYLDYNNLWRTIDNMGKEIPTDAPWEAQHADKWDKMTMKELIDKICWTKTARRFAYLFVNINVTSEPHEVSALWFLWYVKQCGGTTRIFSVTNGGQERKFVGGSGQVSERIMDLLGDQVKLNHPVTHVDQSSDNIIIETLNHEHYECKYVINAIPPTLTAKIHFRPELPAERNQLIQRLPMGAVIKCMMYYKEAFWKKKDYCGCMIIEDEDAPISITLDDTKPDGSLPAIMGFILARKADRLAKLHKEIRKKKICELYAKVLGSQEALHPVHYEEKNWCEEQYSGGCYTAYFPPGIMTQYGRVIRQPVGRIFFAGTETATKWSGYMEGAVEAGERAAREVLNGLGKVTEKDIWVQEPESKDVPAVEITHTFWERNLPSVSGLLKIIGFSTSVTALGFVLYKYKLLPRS

[3] = molecular target: T3, human M1 muscarinic acetylcholine receptor (hM1R) (Homo sapiens, UniProt P11229); test: M1 (h) functional GPCR assay, agonist effect, intracellular Ca2+; format: cell-based; conditions: 100 µM; % of control response to 100-nM acetylcholine; CHO cells
T3 construct: host or cells: CHO cells
T3 sequence (P11229 whole entry): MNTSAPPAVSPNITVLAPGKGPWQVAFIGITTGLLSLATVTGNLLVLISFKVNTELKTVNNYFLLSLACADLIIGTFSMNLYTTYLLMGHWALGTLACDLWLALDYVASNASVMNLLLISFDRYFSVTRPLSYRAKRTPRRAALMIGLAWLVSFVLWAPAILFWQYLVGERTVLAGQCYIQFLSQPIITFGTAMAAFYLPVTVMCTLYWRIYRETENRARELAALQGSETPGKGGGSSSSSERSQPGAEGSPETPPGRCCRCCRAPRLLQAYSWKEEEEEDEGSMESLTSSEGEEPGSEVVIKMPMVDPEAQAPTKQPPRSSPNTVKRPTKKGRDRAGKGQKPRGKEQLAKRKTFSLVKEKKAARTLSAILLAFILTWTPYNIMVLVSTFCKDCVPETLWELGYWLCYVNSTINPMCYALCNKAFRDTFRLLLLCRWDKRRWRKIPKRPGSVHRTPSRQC

[4] = molecular target: T4, human M4 muscarinic acetylcholine receptor (hM4R) (Homo sapiens, UniProt P08173); test: M4 (h) functional GPCR assay, agonist effect, cAMP HTRF; format: cell-based; conditions: 100 µM; % of control response to 1-µM acetylcholine; CHO cells
T4 construct: host or cells: CHO cells
T4 sequence (P08173 1-479): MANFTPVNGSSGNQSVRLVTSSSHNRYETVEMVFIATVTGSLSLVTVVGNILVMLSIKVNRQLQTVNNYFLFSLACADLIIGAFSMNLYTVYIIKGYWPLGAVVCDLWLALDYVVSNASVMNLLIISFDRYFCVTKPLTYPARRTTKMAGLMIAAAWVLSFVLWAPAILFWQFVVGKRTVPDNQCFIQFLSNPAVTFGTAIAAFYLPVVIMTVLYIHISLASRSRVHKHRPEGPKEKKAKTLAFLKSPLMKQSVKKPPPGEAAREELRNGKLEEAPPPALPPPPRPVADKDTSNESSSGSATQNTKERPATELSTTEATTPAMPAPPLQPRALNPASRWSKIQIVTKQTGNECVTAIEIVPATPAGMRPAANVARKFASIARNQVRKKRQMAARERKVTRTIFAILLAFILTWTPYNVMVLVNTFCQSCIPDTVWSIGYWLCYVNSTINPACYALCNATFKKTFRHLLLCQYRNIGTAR

Cc1coc2c1C(=O)C(=O)c1c-2ccc2c(C)cccc12 [Tanshinone I]
IC50 [1]: 24.9 ± 3.82 µM
Ki ([2]; Kic): 1.69 ± 0.19 µM
Ki ([2]; Kiu): 4.65 ± 0.16 µM
Inhibition Type, hMAO-A [2]: Mixed
Inhibition Type, hMAO-A ([2]; listed as 1): mixed-mode
% Stimulation, M1 [3]: 2.5 ± 0.21%
% Stimulation, M4 [4]: −23.5 ± 1.48%
